Values of other authors, collected in patent US10986851B2, “Control of pathogenic bacteria in foods” (priority 2018, dated 2021).

How the values were obtained:
Salmonella [1] = conditions: postchill decontamination tank, ground poultry parts; 0.07 and 0.1% PAA evaluated
Salmonella [2] = conditions: suspension in 0.1% peptone water
Salmonella [3] = conditions: ground chicken containing 9.8% fat, refrigerated storage, 200 ppm

Row | Compound | reduction of Salmonella (Salmonella [1]) | inhibitory effect against Salmonella (Salmonella [2]) | effect on growth of Salmonella (Salmonella [3])
1 | CC(=O)OO [PAA, peracetic acid] | effective for the reduction of Salmonella |  | 
2 | CCCCCCCCCCCC(=O)N[C@@H](CCCN=C(N)N)C(=O)OCC [LAE, lauric arginate] |  | strong inhibitory (P<0.05) effect | no inhibitory (P>0.05) effect
